Laboratory results: patent US20230104487A1, “11-(4-CHLOROPHENYL)-4-(2,3-DIHYDRO-1H-INDOLE-1-CARBONYL)-3,11-DIMETHYL-5,10,DIOXATRICYCLO[7.4.0.0,2,6,]TRIDECA-1,3,6,8-TETRAEN-13-ONE AND DERIVATIVES AS DESTABILIZER OF CRY1 FOR THE TREATMENT OF CIRCADIAN RHYTHM ASSOCIATED DISEASES AND DISORDERS” (KOC UNIVERSITESI, priority 2019, published 2023)

Assays:
CRY1 = molecular target: T1, CRY1 (Homo sapiens, UniProt Q16526); assay: Protein immunoblot, synchronized U2-OS cells, CRY1; assay type: cell-based; conditions: 10 μM, 80-92 h
T1 construct: To evaluate the effect of FORMULA I on the endogenous protein and mRNA level of clock genes; endogenous in cells; host or cells: U2-OS
T1 sequence (Q16526 1-586): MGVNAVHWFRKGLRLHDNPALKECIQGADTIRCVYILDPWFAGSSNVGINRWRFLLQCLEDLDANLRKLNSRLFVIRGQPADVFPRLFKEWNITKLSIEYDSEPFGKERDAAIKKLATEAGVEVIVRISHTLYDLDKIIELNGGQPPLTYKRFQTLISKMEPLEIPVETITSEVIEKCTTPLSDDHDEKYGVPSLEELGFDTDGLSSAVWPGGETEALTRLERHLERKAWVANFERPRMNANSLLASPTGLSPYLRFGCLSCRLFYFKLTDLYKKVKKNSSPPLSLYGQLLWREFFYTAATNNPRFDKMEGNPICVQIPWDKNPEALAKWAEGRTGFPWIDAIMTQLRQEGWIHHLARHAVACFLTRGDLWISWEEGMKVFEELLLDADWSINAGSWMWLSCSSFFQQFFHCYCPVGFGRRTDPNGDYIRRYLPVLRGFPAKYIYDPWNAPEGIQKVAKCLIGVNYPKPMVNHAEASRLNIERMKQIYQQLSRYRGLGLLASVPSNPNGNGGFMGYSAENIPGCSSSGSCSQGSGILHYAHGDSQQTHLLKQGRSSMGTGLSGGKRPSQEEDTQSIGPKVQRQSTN
Protocol: FIGS. 3A-3G are an illustration of FORMULA I decreased CRY1 level in synchronized U2-OS cells. Confluent U2-OS cells were synchronized by 2 h treatment with dexamethasone ([…]) and medium replaced with fresh medium containing FORMULA I or solvent (DMSO final 0.5%). Cells were harvested at indicated time points. FIGS. 3A-3B show lysed cells were analyzed via protein immunoblot technique. […] CRY levels in DMSO control divided by that of in FORMULA I treated samples were reported (mean±SEM, n=4). FIGS. 3C-3G show cells were subjected to reverse-transcription-quantitative polymerase chain reaction (RT-qPCR). […] Expression level of genes was normalized according to the expression level of that gene at 72ndh. (Data represent the mean±SEM, n=3 with duplicates ***: p<0.001 **: p<0.005, *: p<0.05 versus DMSO control by two-way ANOVA).
Cells were lysed in RIPA buffer (50 mM Tris, 150 mM NaCl, 1% Triton-X, 0.1% SDS) with fresh Protease inhibitor cocktail (PIC). After centrifugation at 13000 rpm for 15 minutes at 4° C., supernatant was used to determine the protein amount using Pierce Protein Assay (Thermo Scientific) according to the manufacturer's instruction. Mice liver samples were homogenized and lysed with Dounce homogenizer and RIPA buffer. […] ECL buffer system (Advansta WesternBright) was used to visualize HRP chemi-luminescence via BioRad ChemiDoc Touch visualizer. […]

C57BL/6J mice = assay: Repeated dose toxicity study, 5-day maximum tolerated dose; assay type: in vivo
Protocol: The single dose toxicity data were used to assist the selection of the doses in this repeated dose toxicity study. C57BL/6J mice (n=6 per group) were treated with 40, 80 or 150 mg/kg doses of FORMULA I intraperitoneally for 5 days. Control mice (n=4) were only treated with vehicle (DMSO:Cremophor EL:0.9% NaCl; 2.5:15:82.5, v/v, i.p.). Throughout the study, animals were monitored for mortality, clinical signs, body weight changes, body temperature, food and water consumptions, behaviour assessment and gross findings at the terminal necropsy. Body weights and body temperatures of mice were measured every day as an index of toxicity. Within 48 h after the last dose of FORMULA I administration, blood was collected from mice by cardiac puncture under isoflurane anesthesia. Hematological and biochemical analyzes were performed in blood. Liver, spleen, kidneys and lungs were removed and fixed in 10% formalin solution for histological examinations.

[1] = 150 mg/kg i.p. for 5 days, 3th day of injection

For `Cc1c(C(=O)N2CCc3ccccc32)oc2ccc3c(c12)C(=O)CC(C)(c1ccc(Cl)cc1)O3` (stereo not drawn) [FORMULA I, 11-(4-chlorophenyl)-4-(2,3-dihydro-1H-indole-1-carbonyl)-3,11-dimethyl-5,10,dioxatricyclo[7.4.0.0,2,6,]trideca-1,3,6,8-tetraen-13-one], the CRY1 protein level (CRY1) was “decreased the protein level of CRY1”, the body temperature (C57BL/6J mice; 40 mg/kg i.p. for 5 days) was “comparable to the control animals” and the clinical signs (C57BL/6J mice; 150 mg/kg i.p. for 5 days) was “hyporeflexia”. For the same molecule, the deaths (C57BL/6J mice; [1]) was 1/6, the mortality (C57BL/6J mice; [1]) was 16.6% and the “highest mean body weight loss” value (C57BL/6J mice; 150 mg/kg i.p., 3rd day of injection) was 6.3%. For the same molecule, the clinical signs (C57BL/6J mice; 40 and 80 mg/kg i.p. for 5 days) was “no observed clinical signs”, the “body temperature (mild hypothermia)” value (C57BL/6J mice; 80 and 150 mg/kg i.p., first day) was 33.4-35.8 °C and the tolerability (C57BL/6J mice; doses of 5 and 80 mg/kg (so in the source), 5 days) was “well-tolerated”.
